Values quoted from earlier work, collected in patent US8197846B2, “Sustained release pharmaceutical composition” (Astellas Pharma Inc., priority 2003, dated 2012).
Structures can show the parent of a compound that is named as a salt.

How the values were obtained:
[1] = not given; remark: listed apart in the source

SMILES | adverse reactions when administered as powder triturated with lactose (powder triturated with lactose) | adverse reactions (including abnormal clinical data) presumably related to the agent (104 cases among 4724 cases, approval and post marketing surveillance in Japan) [%] | frequency of hypotension, postural hypotension, blood pressure, tachycardia and palpitation (package insert, circulatory area) | frequency of orthostatic syncope, headache and sleepiness (package insert, psychoneural area) | Cmax and AUC versus dose ([1]; 0.1 to 0.6 mg oral, healthy adult volunteers) | day on which plasma concentration profiles reached the steady state ([1]; repeated administration per os for seven days) [days]
CCOc1ccccc1OCCN[C@H](C)Cc1ccc(OC)c(S(N)(=O)=O)c1 [Tamsulosin, (R)(−)-5-[2-[[2-(o-ethoxyphenoxy)ethyl]-amino]propyl]-2-methoxybenzenesulfonamide] | postural hypotension was induced |  |  |  |  | 
CCOc1ccccc1OCCN[C@H](C)Cc1ccc(OC)c(S(N)(=O)=O)c1 [tamsulosin hydrochloride] |  | 2.2 | less than 0.1% | less than 0.1% | increased almost in proportion to the dose administered | 4
